Format in all cases: cell-based, human
For experiment [1], the system named is HIF-1α. Kind of experiment: IHC and image analysis of HIF-1α in Jurkat cells under DFO-induced hypoxia. As to conditions: 50 μM DFO overnight vs vehicle. The procedure: (§1) These markers were evaluated by immunohistochemistry (“IHC”) and image analysis in the presence of Desferrioxarnine (“DFO”)-induced hypoxia, as well as in its absence, or normoxia. DFO is an iron-chelating agent known to induce hypoxia, and was used in these experiments as a model for hypoxia. All IHC analyses were carried out on either the BenchMark XT® or Discovery XT® (Ventana Medical Systems, Inc., Tucson Ariz. (“VMSI”)) staining platforms. Primary antibodies were obtained from commercial sources (See Table 1). Controls were vehicle treated. […] Primary antibodies were detected using the DABMapTM, OmniMapTM (Discovery XT®), or iViewTM DAB (BenchMark XT®) detection kit according to the manufacturer's instructions. […] Detection Kit detected specific mouse IgG, IgM and rabbit IgG antibodies bound to an antigen in paraffin-embedded or frozen tissue section. […] Staining intensities, percentage of reactive cells, and cellular localization were recorded. […] Slides were reviewed and scored by the pathologist prior to quantitation by optical imaging. For optical imaging, a digital application (VMSI) with image quantification based on the intensity (expressed as average optical density, or avg. OD) of the stain converted to a numerical score was utilized. […]

For a further experiment, the system named is pAKT. In words: IHC and image analysis of pAKT under DFO-induced hypoxia. As to conditions: Jurkat cells, 50 μM DFO overnight vs vehicle. The procedure: as §1
The test system of another experiment is mTOR. Kind of experiment: IHC and image analysis of mTOR under DFO-induced hypoxia. As to conditions: 50 μM DFO overnight vs vehicle; consistently high. The procedure: as §1
The next experiment deals with pMEK. Kind of experiment: IHC and image analysis of pMEK under DFO-induced hypoxia. The conditions noted are these: Jurkat cells, 50 μM DFO overnight vs vehicle. The method, then: as §1
The subject of a further experiment is pTSC2. In words: IHC and image analysis of pTSC2 under DFO-induced hypoxia. The conditions noted are these: Jurkat cells, 50 μM DFO overnight vs vehicle. The method, then:
as §1

The next experiment relates to pS6. Kind of experiment: IHC and image analysis of pS6 under DFO-induced hypoxia. As to conditions: Jurkat cells, 50 μM DFO overnight vs vehicle. The procedure: These markers were evaluated by immunohistochemistry (“IHC”) and image analysis in the presence of Desferrioxarnine (“DFO”)-induced hypoxia, as well as in its absence, or normoxia. DFO is an iron-chelating agent known to induce hypoxia, and was used in these experiments as a model for hypoxia. All IHC analyses were carried out on either the BenchMark XT® or Discovery XT® (Ventana Medical Systems, Inc., Tucson Ariz. (“VMSI”)) staining platforms. Primary antibodies were obtained from commercial sources (See Table 1). Controls were vehicle treated. […] Primary antibodies were detected using the DABMapTM, OmniMapTM (Discovery XT®), or iViewTM DAB (BenchMark XT®) detection kit according to the manufacturer's instructions. […] Detection Kit detected specific mouse IgG, IgM and rabbit IgG antibodies bound to an antigen in paraffin-embedded or frozen tissue section. […]

In another experiment the test system is pERK (p44/p42). In words: IHC and image analysis of pERK (p44/p42) under DFO-induced hypoxia. As to conditions: 50 μM DFO overnight vs vehicle; negative in Jurkat cells, positive in HT1080 cells. The method, then: as §1
The next experiment relates to p4EBP1. In words: IHC and image analysis of p4EBP1 under DFO-induced hypoxia. The conditions noted are these: Jurkat cells, 50 μM DFO overnight vs vehicle. The procedure: as §1
The subject of experiment [2] is HIF-1α. In words: FACS of hypoxia-induced HIF-1α expression in Jurkat tumor cell line. As to conditions: after treatment with DFO. The procedure: FIG. 6 illustrates the fluorescence-activated cell sorting (FACS) results of hypoxia-induced HIF-1α expression in a Jurkat tumor cell line. IHC was conducted and assessed according to the procedures detailed in Example 1. Western Blotting and FACS analysis were conducted using standard conditions.

The test system of experiment [3] is HIF-1α. Kind of experiment: IHC and image analysis of HIF-1α in HT1080 cells (DFO, PX-478 dose escalation). The conditions noted are these: DFO vs vehicle.
For another experiment, the system named is pmTOR. Kind of experiment: IHC and image analysis of pmTOR under DFO-induced hypoxia. As to conditions: Jurkat cells, 50 μM DFO overnight vs vehicle. The method, then:
as §1

The structures appear in SMILES notation. Entries after “also recorded” stand apart in the source; their conditions may differ.

Consider `CC(=O)N(O)CCCCCNC(=O)CCC(=O)N(O)CCCCCNC(=O)CCC(=O)N(O)CCCCCN` [DFO, desferrioxamine], for which the “HIF-1α expression (IHC)” value in the experiment on HIF-1α [1] is recorded as “increase in expression; also recorded: increased expression”; with HIF-1α [3] it was “increased expression”. Also, the “pAKT level of expression or activation (IHC)” value in the experiment on pAKT is given as “no change”. Also, in the experiment on mTOR, the “level of mTOR (IHC)” value was “No change”. For the same compound, the “pMEK expression (IHC)” value in the experiment on pMEK is recorded as “decrease in expression”. In addition, the “pTSC2 level of expression or activation (IHC)” value with pTSC2 is “no change”. The “pS6 expression (IHC)” value in the experiment with pS6 was “decrease in expression”. In addition, the “level of pERK (IHC)” value in the experiment on pERK (p44/p42) is “No change”. The “p4EBP1 expression (IHC)” value in the experiment with p4EBP1 is “decrease in expression”. Also, the “HIF-1α (FACS)” value in the experiment on HIF-1α [2] is listed as “increase in HIF-1α”. Also, the “pmTOR expression (IHC)” value in the experiment with pmTOR was “increase in expression”.
